Reference: patent US20260250318A1, “COMPOSITIONS AND METHODS FOR CROSSING THE BLOOD BRAIN BARRIER” (VOYAGER THERAPEUTICS, INC., priority 2022, published 2026)

Key:
[1] = tested on: brains, heart, liver, muscle, and DRG of the NHPs; test: Maturation of TTM-001 and TTM-002 capsids, NGS enrichment in NHP tissues; assay type: in vivo; details: relative to AAV9 control
Method in brief: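 Variants carry mutations within and flanking the loop IV peptide insert: positions 450–466 were triplet-randomized, while positions 449–466 received low-frequency point mutations. The combined pool went into two NHPs, and each peptide was scored by NGS enrichment ratio against AAV9.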

[2] = tested on: brain; test: Matured TTM-001 and TTM-002 variants, NGS enrichment in mouse brain; assay type: in vivo, mice; details: relative to AAV9 control
[3] = NGS fold-enrichment of matured AAV capsid variants, NHP brain, RNA
[4] = NGS fold-enrichment, DRG of NHPs
[5] = NGS fold-enrichment, RNA, brain of NHPs
[6] = NGS fold-enrichment, heart of NHPs
[7] = NGS fold-enrichment, liver DNA of NHPs
[8] = NGS fold-enrichment, liver RNA of NHPs
[9] = NGS fold-enrichment, muscle of NHPs
[10] = NGS fold-enrichment, brain of mice
[11] = NGS fold-enrichment of RNA, NHP brain
[12] = NGS fold-enrichment, NHP liver DNA
[13] = NGS fold-enrichment, NHP liver RNA
[14] = NGS fold-enrichment, NHP muscle
[15] = NGS fold-enrichment, mouse brain

Sequence | Fold Enrichment relative to AAV9, DRG (NHP) [1, 4] [fold] | Fold Enrichment relative to AAV9, Brain (NHP) [1, 5] [fold] | Fold Enrichment relative to AAV9, Heart (NHP) [1, 6] [fold] | Fold Enrichment relative to AAV9, Liver DNA (NHP) [1, 7] [fold] | Fold Enrichment relative to AAV9, Liver RNA (NHP) [1, 8] [fold] | Fold Enrichment relative to AAV9, Muscle (NHP) [1, 9] [fold] | Fold Enrichment relative to AAV9, Brain (Mouse) [2, 10] [fold] | Fold Enrichment relative to AAV9, Brain (NHP) [1, 11] [fold] | Fold Enrichment relative to AAV9, DRG (NHP) ([1]; NGS fold-enrichment, NHP DRG) [fold] | Fold Enrichment relative to AAV9, Heart (NHP) ([1]; NGS fold-enrichment, NHP heart) [fold] | Fold Enrichment relative to AAV9, Liver DNA (NHP) [1, 12] [fold] | Fold Enrichment relative to AAV9, Liver RNA (NHP) [1, 13] [fold] | Fold Enrichment relative to AAV9, Muscle (NHP) [1, 14] [fold] | Fold Enrichment relative to AAV9, Brain (Mouse) [2, 15] [fold] | other results
KTFNGGGSPHSKAQYQQT | – | – | – | – | – | – | – | – | – | – | – | – | – | – | Fold Enrichment relative to AAV9, Brain (NHP) [1, 3]: 58.609 fold; Fold Enrichment relative to AAV9, DRG (NHP) ([1]; NHP DRG): 0.000 fold; Fold Enrichment relative to AAV9, Heart (NHP) ([1]; NHP heart): 0.000 fold; Fold Enrichment relative to AAV9, Liver DNA (NHP) ([1]; NHP liver, DNA): 0.045 fold; Fold Enrichment relative to AAV9, Liver RNA (NHP) ([1]; NHP liver, RNA): 0.163 fold; Fold Enrichment relative to AAV9, Muscle (NHP) ([1]; NHP muscle): 0.000 fold; Fold Enrichment relative to AAV9, Brain (Mouse) ([2]; mouse brain): 72.618 fold
KTFNGSGSPHNKAQNHQT | 0.000 | 64.060 | 0.000 | 0.317 | 0.094 | 0.035 | 67.757 | – | – | – | – | – | – | – | –
KTFNGSGSPHSKAPNLQT | 0.000 | 121.436 | 0.167 | 0.015 | 0.000 | 0.000 | 168.920 | 121.436 | 0.000 | 0.167 | 0.015 | 0.000 | 0.000 | 168.920 | –
KTFNGSGSPHSKAQGQQT | 0.000 | 99.253 | 0.208 | 0.099 | 0.128 | 0.000 | 81.459 | 99.253 | 0.000 | 0.208 | 0.099 | 0.128 | 0.000 | 81.459 | –
KTFNRSGSPHSKAQNQQI | – | – | – | – | – | – | – | 86.359 | 0.000 | 113.67 | 0.092 | 0.000 | 0.000 | 25.568 | –
KTFPGSGSPHSKVQNQQT | 0.000 | 199.720 | 0.000 | 0.967 | 0.000 | 0.000 | 97.703 | 199.720 | 0.000 | 0.000 | 0.967 | 0.000 | 0.000 | 97.703 | –
KTFSGSGSPHSKAQNLQT | 0.000 | 70.035 | 0.327 | 0.228 | 0.000 | 0.303 | 70.917 | – | – | – | – | – | – | – | –
KTGNGSGSPHSKAQIQQT | – | – | – | – | – | – | – | – | – | – | – | – | – | – | Fold Enrichment relative to AAV9, Brain (NHP) [1, 3]: 52.809 fold; Fold Enrichment relative to AAV9, DRG (NHP) ([1]; NHP DRG): 0.000 fold; Fold Enrichment relative to AAV9, Heart (NHP) ([1]; NHP heart): 0.000 fold; Fold Enrichment relative to AAV9, Liver DNA (NHP) ([1]; NHP liver, DNA): 0.012 fold; Fold Enrichment relative to AAV9, Liver RNA (NHP) ([1]; NHP liver, RNA): 0.000 fold; Fold Enrichment relative to AAV9, Muscle (NHP) ([1]; NHP muscle): 0.000 fold; Fold Enrichment relative to AAV9, Brain (Mouse) ([2]; mouse brain): 98.291 fold
KTIDGGGSPHSKAQNKQT | 0.000 | 85.019 | 0.000 | 0.477 | 0.000 | 0.000 | 55.517 | 85.019 | 0.000 | 0.000 | 0.477 | 0.000 | 0.000 | 55.517 | –
